Measured values taken from patent publication US10695352B2, “Combination therapy for treating malignancies” (Celgene Corporation, priority 2015, dated 2020).
Read-outs that look alike come from different tables or passages of the source.

What was measured:
[1] = system: TF1-R140Q cells; test: Hematopoietic stem cell and blast content determination (CD34, CD38, FACS); assay type: cell-based; conditions: for CD34+/CD38+ and CD34+/CD38− cell populations: end of EPO-differentiation assay; for decrease of hematopoietic progenitor cells (CD34+/CD38+): sequential treatment, COMPOUND 1 0.2 μM, azacitidine 0.1 μM, single agents or combination
Method: Flow cytometry analysis was performed for sequential and concurrent schedules. Hematopoietic progenitor cells (CD34+/CD38+) (i) and stem cells (CD34+/CD38−) (ii) populations were normalized to DMSO+EPO and plotted. Values for population percentage decreases are shown, with those in red font depicting greater than additive effect with the combination as compared to AZA or COMPOUND 1 as single agents.
Cells were blocked in 10×BSA and diluted with MACS rinsing solution to 1× concentration for 15 min (staining buffer, BD Biosciences). Supernatant was removed by spinning. 10 μl of anti-CD34 FITC and anti-CD38 APC antibodies (each in staining buffer) were added. Mouse IgG2a FITC and IgG2a APC were used as isotype controls. Cells were stained for 10 min in dark, the solution was spinned to remove supernatant, the cells were resuspended in 300 μl of staining buffer and proceed to fluorescence-activated cell sorting (FACS).
The hematopoietic stem (CD34+/CD38−) and progenitor (CD34+/CD38+) cell populations were quantified at the end of the EPO-differentiation assay (FIGS. 3 and 8). As single agents, both azacitidine and COMPOUND 1 reduced CD34+/CD38+(FIG. 3i) and CD34+/CD38− (FIG. 3ii) cell populations. […] For example, COMPOUND 1 (0.2 μM) and azacitidine (0.1 μM) as single agents decreased hematopoietic progenitor cells (CD34+/CD38+) by 32% and 7%, respectively, with sequential treatment, while the combination of azacitidine (0.1 μM) and COMPOUND 1 (0.2 μM) decreased the hematopoietic progenitor cell population by 64% (FIG. 3i).

[2] = system: TF1 IDH2/R140Q cells; conditions: for RNA expression of differentiation markers KLF1 and HBG: concurrent schedule; for increase in HBG gene expression: COMPOUND 1 0.2 μM, single agents or combination
Method: FIG. 2A depicts the effect of the combination of azacitidine and COMPOUND 1 used sequentially on differentiation markers. […] Treated cells were subjected to qRT-PCR (ii) and to HBG qRT-PCR (iii). FIG. 2B depicts the effect of the combination of azacitidine and COMPOUND 1 used concurrently on differentiation markers. […] Treated cells were subjected to qRT-PCR (ii) and to HBG qRT-PCR (iii).
(§1) Measures of cell differentiation, growth and death were evaluated in an engineered TF-1 erythroleukemia cells overexpressing the IDH2/R140Q allele or the empty vector control TF-1/pLVX (Wang et al., Science 340:622-626, 2013). The cells were grown in RPMI containing HEPES and L-glutamine (Lonza 12-115F), 10% FBS (HyClone SH30088.03), Pen/Strep (Life Technologies 15070-063), G418: final concentration 500 μg/ml (Life Technologies 10131-027); GM-CSF: final concentration 5 ng/ml (R&D 215-GM-050). Only newly grown cells were used. G418 and GM-CSF were added fresh to media each time cells were passaged. Media was changed every 2-3 days by pelleting cells and resuspending in fresh media or by adding 2 ml of cells to 10 ml of fresh media. When cells were treated with a compound, the media was changed by pelleting cells to ensure proper concentration of the compound.
The RNA was isolated from cells by RNA easy kit (obtained from Qiagen). 500 ng of RNA was used to make cDNA that was subjected to real-time qPCR to detect fetal hemoglobin (HBG) and KLF-1 gene expression. The RNA easy kit was obtained from Qiagen. cDNA was made from Superscript VILO kit (Life technologies). Taqman probes were obtained from Applied Biosciences.
(§2) Measures of cell differentiation, growth and death were evaluated in TF1-R140Q cells, using an in vitro EPO differentiation assay and dose-schedule paradigms represented in FIG. 1. Cells were treated with vehicle, azacitidine alone, COMPOUND 1 alone, or the combination of azacitidine and COMPOUND 1. In the sequential schedule, cells were pre-treated with azacitidine for three days before adding COMPOUND 1. In the concurrent schedule, cells were co-treated with azacitidine and COMPOUND 1 throughout the assay.

[3] = system: TF-1 R140Q cells; test: Real-time growth and apoptosis (Caspase 3/7 dye) on IncuCyte Zoom; assay type: cell-based; conditions: for cell growth: COMPOUND 1 1-10 μM
Method: The TF-1 R140Q cells were pre-treated in bulk in flasks with 1 μM of QDx3 azacitidine and then plated with COMPOUND 1 concentrations of 10, 3 and 0.3 μM and Caspase 3/7 dye (obtained from Essen Biosciences) to monitor real-time growth and apoptosis on IncuCyte Zoom up to 104 hrs.
The TF-1 R140Q cells were plated with the combination of azacitidine (1 and 0.3 μM) and COMPOUND 1 (1 μM) and imaged for real-time growth and apoptosis on IncuCyte Zoom up to 104 hrs.
A real-time death analysis was performed using IncuCyte Zoom (FIGS. 5 and 6).

[4] = system: TF1-R140Q cells; test: Annexin V/7-AAD flow cytometry cell death analysis; assay type: cell-based; conditions: concurrent dose-schedule regimen; average values across dose concentrations
Method: Annexin V and 7-AAD flow cytometry analysis was performed for sequential (day 18) and concurrent (day 14) dosing schedules. Populations were normalized to DMSO+EPO and fold change of percent Annexin V+ and/or 7-AAD+ was plotted.
Cell death was analyzed via Annexin V/7-AAD flow cytometry at the end of the EPO-differentiation assay (FIGS. 4 and 9). In the sequential dose-schedule regimen, there was no induction (<2-fold) of death (AnnexinV+ and/or 7AAD+) with a single agent. In the concurrent dose-schedule regimen, azacitidine and COMPOUND 1 as single agents increased the percentage of AnnexinV+ and/or 7AAD+ cells by 3.4-fold and 3.5-fold (average values across dose concentrations), respectively.

[5] = system: TF1 IDH2/R140Q cells; conditions: for hemoglobin production (coloration/hemoglobinization of cell pellets): day 14, COMPOUND 1 0.2 and 1 μM, azacitidine 0.1 and 0.3 μM; for hemoglobin production (red color of cell pellets): day 18, COMPOUND 1 0.2 μM and 1.0 μM
Excerpt: FIG. 1 in section A depicts COMPOUND 1 and azacitidine (AZA) combination schedule and dosing paradigms for sequential treatment of: 3 days (QDx3) of pre-treatment with azacitidine followed by treatment with the COMPOUND 1 for one week and erythropoietin (EPO)+COMPOUND 1 for another week. The cells were harvested on Day 18 and subjected to various endpoint assays for monitoring differentiation and death. FIG. 1, in section B depicts COMPOUND 1 and azacitidine combination schedule and dosing paradigms for concurrent treatment of: treatment for 7 days with the combination of azacitidine and COMPOUND 1 followed by 7 days of the treatment with azacitidine, COMPOUND 1 and EPO. The cells were harvested on Day 14 and subjected to various endpoint assays for monitoring differentiation and death.
as §1
F1/pLVX and TF1 IDH2/R140Q cells (100,000 cells/ml) were pretreated for 7 days with COMPOUND 1, azacitidine or combination thereof (medium was changed every 2 days) and washed with PBS to remove residual GM-CSF. Cells were induced to differentiate using EPO (2 unit/ml) in the presence or absence of COMPOUND 1. Induction continued for 7 days and the cell pellets were collected and imaged for hemoglobinization content (as a surrogate for differentiation into blood lineage).
as §2

[6] = cited from earlier work
[7] = oral azacitidine; cited from earlier work
[8] = sequential experiment, azacitidine 1 μM

Compound	CD34+/CD38+ and CD34+/CD38− cell populations [1]	decrease of hematopoietic progenitor cells (CD34+/CD38+) [1] [%]	RNA expression of differentiation markers KLF1 and HBG [2]	increase in HBG gene expression ([2]; concurrent, azacitidine 1 μM) [fold]	increase in HBG gene expression ([2]; sequential, azacitidine 0.3 μM) [fold]	cell growth [3, 8]	caspase 3/7 death measure ([3]; summary, single agent, or concurrent combination)	increase in percentage of AnnexinV+ and/or 7AAD+ cells [4] [fold]	hemoglobin production (coloration/hemoglobinization of cell pellets) ([5]; concurrent dosing regimen)	time to observe increased red color of cells (haem production) post-EPO ([5]; sequential schedule) [days]	hemoglobin production (red color of cell pellets) ([5]; sequential schedule)	solubility ([6]; dimethylsulfoxide (DMSO))	solubility ([6]; ethanol/water (50/50), methanol/water (50/50) and methanol)	solubility ([6]; water)	apoptosis [3, 8]	maximum tolerated dose [7] [mg]	cell death as evidenced by decreased cell pellet sizes ([5]; concurrent dosing regimen, azacitidine 1 μM)	solubility ([6]; acetone, ethanol and methyl ketone)	solubility ([6]; ethanol/water (50/50), propylene glycol and polyethylene glycol)	solubility ([6]; water, water-saturated octanol, 5% dextrose in water, N-methyl-2-pyrrolidone, normal saline and 5% Tween 80 in water)
CC(C)(O)CNc1nc(Nc2ccnc(C(F)(F)F)c2)nc(-c2cccc(C(F)(F)F)n2)n1 [COMPOUND 1, 2-methyl-1-[(4-[6-(trifluoromethyl)pyridin-2-yl]-6-{[2-(trifluoromethyl)pyridin-4-yl]amino}-1,3,5-triazin-2-yl)amino]propan-2-ol]	reduced	32	Dose-dependent increases	2.5	241	no effect on cell growth	no effect	3.5	increased hemoglobin production upon EPO differentiation in a dose-dependent manner	7	increased hemoglobin production in a dose-dependent manner									
Nc1ncn([C@H]2C[C@H](O)[C@@H](CO)O2)c(=O)n1 [Decitabine, 4-amino-1-(2-deoxy-β-D-erythro-pentofuranosyl)-1,3,5-triazin-2(1H)one]												soluble	slightly soluble	sparingly soluble						
Nc1ncn([C@@H]2O[C@H](CO)[C@@H](O)[C@H]2O)c(=O)n1 [azacitidine, 4-amino-1-O-D-ribofuranozyl-s-triazin-2(1H)-one]	reduced	7	Dose-dependent increases	7.1	92	reduced growth		3.4	increased hemoglobin production		little or no effect on cell pellet color	soluble			increased apoptosis	480	cell death occurred	insoluble	slightly soluble	sparingly soluble
